The values that follow come from patent US10314816B2, “Antimicrobial compounds, compositions and methods of use thereof” (Wisconsin Alumni Research Foundation, priority 2012, dated 2019).

SMILES strings stand for the structures.

As usually defined, the MIC is the lowest concentration found to suppress growth.

Assay [1] deals with C. crescentus CB15N. Kind of assay: Minimum biofilm eradication concentration (MBEC). In kind it is cell-based, Caulobacter crescentus. The method, then:
(§1) Determination of the minimum biofilm inhibitory concentration of growth (bMIC) and biofilm eradication concentration (MBEC). Overnight cultures of C. crescentus and S. aureus were grown and diluted 100-fold into appropriate nutrient media. Aliquots of the diluted suspension were transferred into wells of 96-well plates (150 μL/well). 2-fold serial dilutions were performed for compound-containing wells. For every experiment, three replicates for each compound concentration tested were included. After transferring aliquots of the suspension, the plates were closed with specialized lids that have protruding pins (Nunc STP System), and the plates were sealed using Parafilm®. The plates were incubated in a static incubator at 30° C. (C. crescentus) or 37° C. (S. aureus) for 24 hours. After the cells had formed biofilms on the surface of the pins, the pins were rinsed by dipping them in M2 (C. crescentus) or PBS (S. aureus) solutions. To rinse the pins, clean, sterile 96-well plates were used (aliquots of 200 μL/well); each rinse lasted 10 sec. After washing away planktonic cells loosely bound to biofilms, the pins were inserted into a 96-well plate that was pre-aliquoted with nutrient media containing antibiotics (2-fold dilutions, a final volume of 150 μL/well). The plates were sealed with Parafilm®, and incubated for 17 hours, and the bMIC was measured at the end of the incubation by visual inspection. After the bMIC run, the rinse steps were repeated to remove planktonic cells, and the pins were inserted into a 96-well plate that was pre-aliquoted with drug-free nutrient media (aliquots of 150 μL/well). The plates were sealed with Parafilm®, incubated for 24 hours, and the MBEC was measured at the end of the incubation by visual inspection.
After performing bMIC experiments, biofilms growing on the pins of the lid were transferred to nutrient media devoid of antibiotics to measure the minimum concentration of antibiotic that prevented planktonic growth from biofilms in antibiotic-free nutrient media (MBEC). MBEC indicates whether the exposure to antimicrobial agent used during the bMIC experiment sterilized biofilm-associated cells. […] CCCP was the only effective antibiotic against S. aureus biofilms. Since CCCP was not as effective as DCAP at killing stationary cells, it was hypothesized that this variability in efficacy of membrane-active drugs is in part caused by changes in membrane composition (i.e., membrane proteins and lipid content) at different developmental stages of bacterial cells. […]

In assay [2] the test system is C. crescentus CB15N. Kind of assay: MIC of bacterial growth, macrodilution (Table 2). As to conditions: Caulobacter vibrioides, actively growing cells, read-out: MIC. In kind it is cell-based, Caulobacter crescentus. The method, then:
Bacterial strains and growth conditions. Luria-Bertani (LB) media (10 g/L tryptone, 10 g/L NaCl, 5 g/L yeast extract, pH 7.2) was used to grow B. subtilis 168, S. aureus FRI100, and P. aeruginosa K1115 strains. For P. aeruginosa PAO1 and K1119 strains and two E. coli BW25113 strains, M8 minimal media (241 mg/L MgSO4, 4 mg/L glucose, 5 mg/L casamino acids, 12.8 g/L Na2HPO4.7H2O, 3 g/L KH2PO4, and 0.5 g/L NaCl) was used. PYE media (2 g/L peptone, 1 g/L yeast extract, 0.8 mM MgSO4, and 0.5 mM CaCl2) was used for culturing C. crescentus cells at 30° C. All cultures were grown at 37° C., except for C. crescentus (30° C.). All cultures were grown while shaking at 200 rpm.
Determination of the minimum inhibitory concentration (MIC) of bacterial growth. The MIC of various organisms in liquid media was determined using the macrodilution method according to the NCCLS guidelines. For the starting inoculum, cultures were diluted to contain approximately 5×10^5 cells/mL in growth media. To create a two-fold dilution series for the macrodilution technique, each compound was added to the first culture tube (4 mL total volume) at the highest concentration. 2 mL of this culture was diluted into an equal volume of inoculated media (a two-fold dilution). The final volume for each culture was 2 mL.

Assay [3] has as its system S. aureus FRI 100. The assay is described as follows: MIC of bacterial growth, macrodilution (Table 2). In kind it is cell-based. As to conditions: Staphylococcus aureus, FRI100; S. aureus FRI 100, actively growing cells.
Procedure: Bacterial strains and growth conditions. Luria-Bertani (LB) media (10 g/L tryptone, 10 g/L NaCl, 5 g/L yeast extract, pH 7.2) was used to grow B. subtilis 168, S. aureus FRI100, and P. aeruginosa K1115 strains. […] All cultures were grown at 37° C., except for C. crescentus (30° C.). All cultures were grown while shaking at 200 rpm.
The next assay concerns GFP-MinD. Kind of assay: Measurement of compound effects on MinD localization. It counts as cell-based, Bacillus subtilis. As to conditions: B. subtilis cells, treated 20 minutes, compared to DMSO. The method, then: Measurement of compound effects on MinD: B. subtilis DS4294 (amyE::Pxyl-GFP-minD cat) cells were grown to exponential phase (λ=600 nm, 0.4-0.7) in LB with incubation at 30° C. and 200 rpm shaking. Cells were induced for GFP-MinD production by adding xylose to the media to a final concentration of 0.1% (w/v) followed by incubating for 75 min. After induction, cells were treated with compounds for 20 minutes before imaging. Other details for imaging conditions and data analysis were identical to those described for MipZ-YFP, except for the definition of poles, and a set of criteria used for defining ‘wildtype’ protein localization. ‘Wildtype’ was defined as 1) GFP-MinD was bipolar, meaning there were two peaks, and both peaks were at the poles (1-20% and 80-100% of the normalized cell length); 2) GFP-MinD was at the mid-cell in addition to the bipolar localization, meaning there were three peaks with two of them at the poles and one at mid-cell; and 3) GFP-MinD was at an quaternary position (20-40% and 60-80% of the normalized cell length) in addition to the bipolar and mid-cell localization (the total number of peaks was 4 if there is one quaternary peak, and the total was 5 if there are two quaternary peaks). Because B. subtilis cells can initiate division prior to finishing an earlier division and the completion of septation, these normal cells have peaks at quaternary positions. […]

The test system of assay [4] is S. aureus FRI 100. Kind of assay: Minimum biofilm eradication concentration (MBEC). In kind it is cell-based, Staphylococcus aureus. As to conditions: S. aureus FRI 100 biofilm. The method, then: as §1
After performing bMIC experiments, biofilms growing on the pins of the lid were transferred to nutrient media devoid of antibiotics to measure the minimum concentration of antibiotic that prevented planktonic growth from biofilms in antibiotic-free nutrient media (MBEC). […]

Assay [5] concerns S. aureus FRI 100. The assay is described as follows: Minimum biofilm inhibitory concentration (bMIC). It counts as cell-based, Staphylococcus aureus. As to conditions: S. aureus FRI 100 biofilm. Here is the method: as §1, with “After the bMIC run, the rinse steps were repeated to remove planktonic cells, and the pins were inserted into a 96-well plate that was pre-aliquoted with drug-free nutrient media (aliquots of 150 μL/well).” left out
Membrane-active compounds are also efficient at eradicating biofilm-associated cells (Table 2). […] To determine the efficacy of antibiotics against biofilms, the minimum biofilm inhibitory concentration (bMIC) and the minimum biofilm eradication concentration (MBEC) were measured. […] After 24 hours of exposure to compounds, the lowest concentration of antibiotic that inhibited planktonic cell growth in the wells (bMIC) was determined.

As to `N#CC(C#N)=NNc1cccc(Cl)c1` [CCCP, carbonyl cyanide m-chlorophenyl hydrazone], the MBEC with C. crescentus CB15N [1] was 5 µM; with S. aureus FRI 100 [4] it was 80 µM. Moreover, the MIC with C. crescentus CB15N [2] amounted to 5 µM; in the assay with S. aureus FRI 100 [3], 1.25 µM. For the same compound, the GFP-MinD localization entry in the assay with GFP-MinD is listed as “more diffuse fluorescence throughout the cell but had little effect on the location of the signal”. The same compound gave a bMIC in the assay on S. aureus FRI 100 [5] of 2.5 µM.

In the case of `OCC(CO)(CO)NCC(O)Cn1c2ccc(Cl)cc2c2cc(Cl)ccc21` (stereo not drawn) [DCAP, 2-((3-(3,6-dichloro-9H-carbazol-9-yl)-2-hydroxypropyl)amino)-2-(hydroxymethyl)propane-1,3-diol], the MBEC is 40 µM in the assay with C. crescentus CB15N [1] and above 200 µM in the assay with S. aureus FRI 100 [4]. Further, the MIC was found to be 15 µM in the assay on C. crescentus CB15N [2] and 50 µM in the assay with S. aureus FRI 100 [3]. Further, the GFP-MinD localization entry with GFP-MinD is listed as “GFP-MinD mislocalized”. Besides, the bMIC in the assay on S. aureus FRI 100 [5] came out at 100 µM.
